Reference: patent publication US20190216779A1, “USE OF NEUROKININ-1 ANTAGONISTS TO TREAT A VARIETY OF PRURITIC CONDITIONS” (MENLO THERAPEUTICS INC., priority 2016, published 2019)

Key:
[1] = cited from earlier work
[2] = Solubility test of serlopitant in Franz cell receptor solution; type: physicochemical
[3] = system: subjects with chronic pruritus; test: Phase II randomized, double-blind, placebo-controlled clinical study of serlopitant in chronic pruritus; type: in vivo, human; conditions: for 4-point responder rate (proportion of subjects achieving ≥4-point improvement on a 10-point scale) in the average VAS itch score: Week 6, placebo 26%; for relief of itch in the NRS score compared to placebo (secondary efficacy endpoint; data not shown) / relief of itch in the VAS score compared to placebo (primary efficacy endpoint): Weeks 4, 5 and 6
Protocol: A well-controlled human clinical trial assessing the efficacy of serlopitant in the treatment of chronic pruritus was approved by an Institutional Review Board and was conducted in accordance with the International Conference on Harmonisation (ICH) Guidelines for Good Clinical Practices, the U.S. Code of Federal Regulations, the Health Insurance Portability and Accountability Act (HIPAA), and any local regulatory requirements. The study was a Phase II randomized, double-blind, parallel-group, placebo-controlled, multicenter trial designed to evaluate the efficacy and safety of serlopitant versus placebo in subjects with chronic pruritus.
Subjects were randomized to receive a 0.25 mg, 1 mg or 5 mg tablet of serlopitant or a matching placebo tablet. Subjects took one tablet of serlopitant or placebo once daily by mouth for a total of 6 weeks following a loading dose of 3 tablets on the first day of treatment. The maximum study duration for each subject was about 12 weeks and included a screening period of up to 2 weeks, a treatment period of 6 weeks, and a follow-up period of 4 weeks. The screening period was extended up to 44 days if a washout period from any prohibited medications was required.

[4] = system: subjects with chronic pruritus and prurigo nodularis; test: Phase II randomized, double-blind, placebo-controlled clinical study of serlopitant in chronic pruritus due to prurigo nodularis; type: in vivo, human; conditions: for Mean difference Serlopitant − Placebo (SE) in change of average itch VAS score from baseline by repeated measures analysis: 5 mg once daily oral, 10 cm VAS
Protocol: A well-controlled human clinical trial assessing the efficacy of serlopitant in the treatment of pruritus associated with prurigo nodularis (PN) was approved by an Institutional Review Board and was conducted in accordance with the ICH Guidelines for Good Clinical Practices. German regulations on recordkeeping of subject information, and any local regulatory requirements. The study was a Phase II randomized, double-blind, placebo-controlled, multicenter trial designed to evaluate the efficacy and safety of serlopitant versus placebo in subjects with PN. […] The subjects had chronic pruritus due to PN.
Subjects were randomized to receive either a 5-mg tablet of serlopitant or a matching placebo tablet. Subjects took a tablet of serlopitant or placebo once daily by mouth for 8 weeks following a loading dose of 3 tablets on the first day of treatment. The maximum study duration for each subject was about 14 weeks and included a screening period of up to 4 weeks, a treatment period of 8 weeks, and a follow-up period of 2 weeks.
At Baseline, the average itch VAS score (average itch over the past 24 hours) for the serlopitant group and the placebo group was 7.88 and 7.92, respectively. […] Furthermore, a once-daily 5 mg dose of serlopitant led to a 4-point responder rate (the proportion of subjects achieving ≥4-point improvement on a 10-point scale) of 54% with respect to the average itch VAS score at Week 8 compared to 25% for placebo.

[5] = In vitro skin permeation of serlopitant in topical formulations, Franz diffusion cell; type: in vitro ADME; conditions: topical formulations B and C, human skin, 37° C., LC-MS/MS
Protocol: In vitro skin permeation of serlopitant in topical formulations A-D was evaluated using a Franz diffusion cell. FIG. 1 illustrates a Franz diffusion cell. A Franz diffusion cell having a circular permeation area of 4.15 cm^2 and a receptor chamber volume of 19 mL was set up with a thermo-regulated outer water jacket to maintain the temperature at 37° C. The receptor chamber was filled with 19 mL 1×PBS (pH 7.5) containing 10% ethanol and 1% Tween® 80.
Human skin was pre-treated to remove all subcutaneous fat and was cleaned with 70% ethanol before use. The skin was visually inspected to ensure that it was free of any surface irregularity or small holes and was equally divided into four pieces. The skin was then mounted onto the receptor chamber with the stratum corneum side facing up. […]
All samples were processed by solid-phase extraction (SPE) before LC-MS/MS analysis. […] Serlopitant concentrations in samples resulting from formulations A-D were determined by comparison to the standard. Serlopitant was not detected in samples resulting from topical formulations A and D, as expected. […] After an initial lag, serlopitant was detected by LC-MS/MS in the receptor chamber at 6 hours.
The amount of serlopitant retained in the skin was determined at the end of the experiment. […] Extracted serlopitant was quantified by LC-MS/MS. […]

[6] = all three doses (0.25 mg, 1 mg, 5 mg once daily, 6 weeks)

For `C[C@@H](O[C@H]1CC[C@@H]2CN(C3=CC(=O)CC3)C[C@H]2[C@@H]1c1ccc(F)cc1)c1cc(C(F)(F)F)cc(C(F)(F)F)c1` [Form I], the “thermodynamic stability of polymorph” value ([1]; Form I compared with Form II) is listed as “thermodynamically more stable below 70 °C” and the hygroscopicity ([1]; all tested relative humidity conditions) is listed as “non-hygroscopic”.

For `C[C@@H](O[C@H]1CC[C@@H]2CN(C3=CC(=O)CC3)C[C@H]2[C@@H]1c1ccc(F)cc1)c1cc(C(F)(F)F)cc(C(F)(F)F)c1` [serlopitant, 3-[(3aR,4R,5S,7aS)-5-[(1R)-1-[3,5-bis(trifluoromethyl)phenyl]ethoxy]-4-(4-fluorophenyl)octahydro-2H-isoindol-2-yl]cyclopent-2-en-1-one], the “solubility in receptor solution” value ([2]; 1×PBS (pH 7.5) containing 10% ethanol and 1% Tween 80, 1 hour of incubation at 37° C.) was “remained soluble at concentrations of 0.5, 5 and 50 ug/mL”, the “change of solubility if Tween 80 was not used” value ([2]; receptor solution without Tween 80) was “decreased significantly” and the “change of solubility if ethanol was not used” value ([2]; receptor solution without ethanol) was “decreased slightly”. For the same compound, the “Least squares mean % change from baseline in average VAS itch score” value (“Least squares mean % change” below) ([3]; 0.25 mg once daily oral, Week 1, n = 64) was −9.1 ± 3.9%, the “Least squares mean % change” value ([3]; 0.25 mg once daily oral, Week 2, n = 64) was −14.9 ± 4.0% and the “Least squares mean % change” value ([3]; 0.25 mg once daily oral, Week 3, n = 64) was −21.4 ± 4.0%. The “Least squares mean % change” value ([3]; 0.25 mg once daily oral, Week 4, n = 64) was −29.0 ± 4.0%, the “Least squares mean % change” value ([3]; 0.25 mg once daily oral, Week 5, n = 64) was −32.4 ± 4.0% and the “Least squares mean % change” value ([3]; 0.25 mg once daily oral, Week 6, n = 64) was −34.1 ± 4.1%. The “Least squares mean % change” value ([3]; 1 mg once daily oral, Week 1, n = 65) was −11.8 ± 3.9%, the “Least squares mean % change” value ([3]; 1 mg once daily oral, Week 2, n = 65) was −22.0 ± 4.0% and the “Least squares mean % change” value ([3]; 1 mg once daily oral, Week 3, n = 65) was −30.2 ± 4.0%. For the same compound, the “Least squares mean % change” value ([3]; 1 mg once daily oral, Week 4, n = 65, p < 0.05 vs placebo) was −33.1 ± 4.0 %, the “Least squares mean % change” value ([3]; 1 mg once daily oral, Week 5, n = 65, p < 0.05 vs placebo) was −38.0 ± 4.1 % and the “Least squares mean % change” value ([3]; 1 mg once daily oral, Week 6, n = 65, p < 0.05 vs placebo) was −41.4 ± 4.0 %. The “Least squares mean % change” value ([3]; 5 mg once daily oral, Week 1, n = 64) was −12.0 ± 3.9%, the “Least squares mean % change” value ([3]; 5 mg once daily oral, Week 2, n = 64) was −20.3 ± 4.0% and the “Least squares mean % change” value ([3]; 5 mg once daily oral, Week 3, n = 64) was −28.8 ± 4.0%. For the same compound, the “Least squares mean % change” value ([3]; 5 mg once daily oral, Week 4, n = 64, p < 0.05 vs placebo) was −34.2 ± 4.0 %, the “Least squares mean % change” value ([3]; 5 mg once daily oral, Week 5, n = 64, p < 0.05 vs placebo) was −37.3 ± 4.0 % and the “Least squares mean % change” value ([3]; 5 mg once daily oral, Week 6, n = 64, p < 0.05 vs placebo) was −42.5 ± 4.1 %. For the same compound, the “intensity of all adverse events” value [3, 6] was “mild or moderate intensity”, the “most common treatment-emergent adverse events” value [3, 6] was “diarrhea, somnolence and headache in the low single-digit percent” and the “tolerability and safety profile” value [3, 6] was “well tolerated and exhibited an excellent safety profile”. The “4-point responder rate (proportion of subjects achieving ≥4-point improvement on a 10-point scale) in the average VAS itch score” value ([3]; once-daily 1 mg dose) was 42%, the “relief of itch in the NRS score compared to placebo (secondary efficacy endpoint; data not shown)” value ([3]; once-daily 1 mg dose) was “statistically significant improvement in relief of itch” and the “relief of itch in the VAS score compared to placebo (primary efficacy endpoint)” value ([3]; once-daily 1 mg dose) was “statistically significant improvement in relief of itch”. The “4-point responder rate (proportion of subjects achieving ≥4-point improvement on a 10-point scale) in the average VAS itch score” value ([3]; once-daily 5 mg dose) was 53%, the “relief of itch in the NRS score compared to placebo (secondary efficacy endpoint; data not shown)” value ([3]; once-daily 5 mg dose) was “statistically significant improvement in relief of itch” and the “relief of itch in the VAS score compared to placebo (primary efficacy endpoint)” value ([3]; once-daily 5 mg dose) was “statistically significant improvement in relief of itch”. The “Mean difference Serlopitant − Placebo (SE) in change of average itch VAS score from baseline by repeated measures analysis” value ([4]; Week 2, 95% CI (−1.5, −0.2), p 0.0111) was −0.9 (0.34), the “Mean difference Serlopitant − Placebo (SE) in change of average itch VAS score from baseline by repeated measures analysis” value ([4]; Week 4, 95% CI (−1.8, −0.1), p 0.0248) was −1.0 (0.43) and the “Mean difference Serlopitant − Placebo (SE) in change of average itch VAS score from baseline by repeated measures analysis” value ([4]; Week 8, 95% CI (−2.6, −0.7), p 0.0005) was −1.7 (0.47). For the same compound, the “adverse event diarrhea (most common adverse events)” value ([4]; 5 mg once daily, 8 weeks) was 11%, the “adverse event nasopharyngitis (most common adverse events)” value ([4]; 5 mg once daily, 8 weeks) was 17% and the “intensity of treatment-emergent adverse events” value ([4]; 5 mg once daily, 8 weeks) was “generally mild or moderate”. The tolerability and safety ([4]; 5 mg once daily, 8 weeks) was “well tolerated and safe”, the “improvement in pruritus on the IGA vs placebo” value ([4]; once-daily 5 mg dose) was “greater improvement” and the “4-point responder rate with respect to the average itch VAS score” value ([4]; once-daily 5 mg dose, Week 8, placebo 25%) was 54%. For the same compound, the “4-point responder rate with respect to the worst itch NRS score” value ([4]; once-daily 5 mg dose, Week 8, placebo 26%) was 47%, the “proportion of subjects reporting “no/mild pruritus” on the VRS” value ([4]; once-daily 5 mg dose, Week 8, placebo 28.9%) was 54.4% and the “proportion of subjects reporting improvement in pruritus on the PGA” value ([4]; once-daily 5 mg dose, Week 8, placebo 54.3%) was 82.5%. For the same compound, the “decrease in the average itch VAS score from Baseline compared to placebo” value ([4]; once-daily 5 mg dose, Weeks 2, 4, and 8) was “statistically significant decrease”, the “improvement in the worst itch VAS score from Baseline to Week 8 vs placebo” value ([4]; once-daily 5 mg dose, p=0.0024) was “statistically significantly, greater improvement” and the “decrease in the average itch NRS score from Baseline to Week 8 vs placebo” value ([4]; once-daily 5 mg dose, p=0.0069) was “statistically significantly greater decrease”. For the same compound, the “time at which serlopitant was detected in the receptor chamber after an initial lag” value [5] was 6 h.
